According to the supplement of paper PMC10307832:

Columns and labels:
Experiment in all cases: relative viability (nuclei count vs DMSO), 5 days (fraction); higher = more cells survive
Motesanib + Linsitinib = compound: CC1(C)CNc2cc(NC(=O)c3cccnc3NCc3ccncc3)ccc21 [Motesanib] + C[C@]1(O)C[C@@H](c2nc(-c3ccc4ccc(-c5ccccc5)nc4c3)c3c(N)nccn32)C1 [Linsitinib] (partner 1 µM)
Summary of the method: (§1)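 Each reported value is a median over duplicate plates. It expresses relative viability: treated-well nuclei count divided by vehicle-well nuclei count. Lung cancer cell lines in 1536-well plates were dosed by pin tool a day after seeding, alone with one drug or with a fixed anchor-drug dose plus five library-drug doses (not always all listed) in √10 steps, and nuclei were counted after 5 days.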

Motesanib + Dasatinib = compound: CC1(C)CNc2cc(NC(=O)c3cccnc3NCc3ccncc3)ccc21 [Motesanib] + Cc1nc(Nc2ncc(C(=O)Nc3c(C)cccc3Cl)s2)cc(N2CCN(CCO)CC2)n1 [Dasatinib] (partner 0.075 µM)
Summary of the method: as §1

Motesanib + Pemetrexed = compound: CC1(C)CNc2cc(NC(=O)c3cccnc3NCc3ccncc3)ccc21 [Motesanib] + Nc1nc2[nH]cc(CCc3ccc(C(=O)N[C@@H](CCC(=O)O)C(=O)O)cc3)c2c(=O)[nH]1 [Pemetrexed] (partner 0.2 µM)
Summary of the method: as §1

[1] = compound: C[C@@]1(C(=O)Nc2ccc(F)nc2)CCCN1c1nc(Nc2cc(C3CC3)n[nH]2)c2cccn2n1 + CS(=O)(=O)CCNCc1ccc(-c2ccc3ncnc(Nc4ccc(OCc5cccc(F)c5)c(Cl)c4)c3c2)o1 [Lapatinib] (partner 2 µM)
Summary of the method: as §1

| Cell Line | relative viability (Motesanib + Linsitinib; first compound 0.01 µM) | relative viability (Motesanib + Linsitinib; first compound 0.03162 µM) | relative viability (Motesanib + Linsitinib; first compound 0.1 µM) | relative viability (Motesanib + Linsitinib; first compound 0.3162 µM) | relative viability (Motesanib + Linsitinib; first compound 1 µM) | relative viability (Motesanib + Dasatinib; first compound 0.01 µM) | relative viability (Motesanib + Dasatinib; first compound 0.03162 µM) | relative viability (Motesanib + Dasatinib; first compound 0.1 µM) | relative viability (Motesanib + Dasatinib; first compound 0.3162 µM) | relative viability (Motesanib + Dasatinib; first compound 1 µM) | relative viability (Motesanib + Pemetrexed; first compound 0.01 µM) | relative viability (Motesanib + Pemetrexed; first compound 0.03162 µM) | relative viability (Motesanib + Pemetrexed; first compound 0.1 µM) | relative viability (Motesanib + Pemetrexed; first compound 0.3162 µM) | relative viability (Motesanib + Pemetrexed; first compound 1 µM) | relative viability ([1]; first compound 0.04 µM) | relative viability ([1]; first compound 0.1265 µM) | relative viability ([1]; first compound 0.4 µM) | relative viability ([1]; first compound 1.265 µM) |
| --- | --- | --- | --- | --- | --- | --- | --- | --- | --- | --- | --- | --- | --- | --- | --- | --- | --- | --- | --- |
| COR-L23 | 0.943 | 0.862 | 0.92 | 1.09 | 0.905 | 0.561 | 0.59 | 0.515 | 0.499 | 0.451 | 0.186 | 0.198 | 0.187 | 0.197 | 0.184 | 1.12 | 0.957 | 0.994 | 0.423 |
| HCC-78 | 0.498 | 0.481 | 0.541 | 0.705 | 0.584 | 0.342 | 0.406 | 0.291 | 0.391 | 0.437 | 0.902 | 0.897 | 0.858 | – | 0.906 | 0.826 | 0.476 | 0.186 | 0.186 |
| NCI-H2087 | 0.885 | 1.03 | 1.16 | 0.998 | 1.1 | 0.838 | 0.841 | 0.774 | 0.91 | 0.895 | – | – | 0.657 | 0.73 | 0.605 | 1.09 | 0.958 | 0.88 | 0.945 |
| BEN | 0.932 | 0.842 | 1.08 | 0.886 | 1.05 | 0.286 | 0.342 | 0.333 | 0.325 | 0.343 | 0.539 | 0.774 | 0.73 | 0.582 | 0.749 | 0.712 | 0.729 | 0.765 | 0.698 |
| EKVX | 0.939 | 0.98 | 1.06 | 1.12 | 1.07 | 0.592 | 0.462 | 0.527 | 0.654 | 0.505 | 0.414 | 0.377 | 0.368 | 0.394 | 0.406 | 0.184 | 0.162 | 0.137 | 0.133 |
| LXF-289 | 0.958 | 0.974 | 1.02 | 1 | 1.02 | 0.258 | 0.148 | 0.257 | 0.256 | 0.267 | 0.704 | 0.845 | 0.898 | 0.896 | 0.57 | 0.914 | 0.856 | 0.831 | 0.802 |
| NCI-H650 | 0.779 | 0.833 | 0.936 | 1.02 | 0.795 | 0.399 | – | 0.442 | 0.501 | 0.444 | 0.853 | 0.942 | 0.803 | 0.956 | 0.859 | 0.853 | 0.828 | 0.625 | 0.55 |
| NCI-H2085 | 0.936 | 0.853 | 1.13 | 0.996 | 0.886 | 0.286 | 0.204 | 0.225 | 0.252 | 0.23 | 0.895 | 0.969 | 0.852 | 0.851 | 0.892 | 0.808 | 0.639 | 0.661 | 0.62 |
| NCI-H1793 | 0.877 | 0.802 | 0.796 | 0.793 | 0.76 | 0.393 | 0.388 | 0.376 | 0.416 | 0.405 | 0.862 | 0.894 | 0.843 | 0.856 | 0.853 | 0.801 | 0.469 | 0.568 | 0.53 |
